By IC50 is commonly meant the point on the concentration scale where inhibition reaches its midpoint.

We go through 29 molecules from patent US8466186B2, “Compounds” (Boehringer Ingelheim International GmbH, priority 2010, dated 2013).

The target of this test is T1, recombinant human mPGES-1 (Homo sapiens, UniProt O14684).
T1 construct: made in house; host or cells: Rosetta E. coli (membrane/microsome fraction)
T1 sequence (O14684 1-152): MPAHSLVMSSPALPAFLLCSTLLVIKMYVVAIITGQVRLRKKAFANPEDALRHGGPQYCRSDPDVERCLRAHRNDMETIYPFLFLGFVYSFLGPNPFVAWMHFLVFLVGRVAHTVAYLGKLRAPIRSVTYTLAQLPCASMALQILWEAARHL
Kind of test: Assay A: mPGES-1 enzyme assay (HTRF detection of PGE2). Format: biochemical. The note with it: biological assay A; microsomes from E. coli expressing recombinant human mPGES-1; read-out: mPGES-1 inhibitory effect IC50. The source says:
The aim of this assay is to determine the affinity of a test compound for the mPGES-1 enzyme.
• 1. Riendeau, D., R. Aspiotis, D. Ethier, Y. Gareau, E. Grimm, J. Guay, S. Guiral, H. Juteau, J. Mancini, N. Methot, J. Rubin, and R. Friesen, Inhibitors of the inducible microsomal prostaglandin E2 synthase (mPGES-1) derived from MK-886. Bioorg Med Chem Lett, 2005. 15(14): p. 3352-3355. • 2. Cote, B., L. Boulet, C. Brideau, D. Claveau, D. Ethier, R. Frenette, M. Gagnon, A. Giroux, J. Guay, S. Guiral, J. Mancini, E. Martins, F. Masse, N. Methot, D. Riendeau, J. Rubin, D. Xu, H. Yu, Y. Ducharme, and R. Friesen, Substituted phenanthrene imidazoles as potent, selective, and orally active mPGES-1 inhibitors. Bioorg Med Chem Lett, 2007. 17(24): p. 6816-6820. Assay A: mPGES-1 Enzyme Assay List of Reagents Used: • Glutathione (Sigma, G-4251) • Freeze culture in Rosetta E coli expression strain. • LB growth media with Ampillicillin (Amp) final concentration in culture 50 μg/mL • Chloroamphenicol stock 34 mg/mL (chloro) final concentration in culture 34 μg/mL • Sterile growth flasks for 500 mL-1 liter cultures • 0.1 M KP, buffer pH 7.4 • 9.25% HCl • PGH2 (0.25 mM) • Fe (II) Cl2 tetrahydrate, 99% (Sigma, 220229) • 384-well plate with compounds • 96-well plate, polypropylene (Thermo fast 96 skirted VWR) • 384-well plate polypropylene PCR plate (Greiner 785201) • Greiner 384-well plate pp (In vitro cat. no. 781280) • Adhesive sealing film for 96-well plates (Sigma-Aldrich) • Aluminium foil (PCR foil, 310-0030-127-471 from Labora) • PBS (GIBCO 14040) • Prostaglandin E2 Assay (Cisbio, cat. no. 62P2APEC) • Biomek FX robot (Beckman Coulter) • Biomek NX robot (Beckman Coulter) • Multidrop; micro or combi (ThermoLabsystems) • Plate reader: Safire2 (Tecan)
Microsomes from Rosetta E. coli bacteria expressing recombinant human mPGES-1 can be derived as described below:
Inoculate 5 mL LB with Amp and Chloro with bacteria from freeze culture. Incubate overnight at 37° C. with 200 rpm. Thereafter, inoculate 500-800 mL LB containing Amp and Chloro with the 5 mL on culture and grow to OD640 of 0.6-0.8. Chill the culture to +4° C. before induction. Induce the culture with IPTG at a final concentration of 400 μM. Express the protein at room temp 18-23° C. with 200 rpm shaking overnight.
The following steps can be performed on the following day: • 1. Spin down the cells in 250 mL centrifuge flasks for 15 min at 7000 rpm • 2. Dissolve the pellet from 250 mL culture in 12.5 mL homogenization buffer • 3. Disintegrate the cells by sonication, 4×10 seconds at 35% amplitude • 4. Add 2.5 mL MgCl2 (100 mM) and DNase 12.5 μL (0.8 mg/mL) and incubate on ice for 30 min • 5. Spin down the bacteria debris and save the supernatant, 7000 rpm for 15 min • 6. Isolate the protein containing membranes in the supernatant by ultracentrifugation 45000×g for 1 hour. • 7. Discard the supernatant and dissolve the pellet in 20 mM KPi buffer and aliquot the enzyme and store aliquots at −80° C.
Before each experiment is performed an aliquot of the enzyme is thawed and it can then be dissolved in 0.1 M KP, pH 7.4 buffer containing 2.5 mM GSH. 50 μL of this enzyme solution is subsequently dispensed in a 384-well plate at room temperature. 0.5 μL of the inhibitor dissolved in DMSO is thereafter added to each well and incubated for 25 minutes at room temperature. Subsequently, 2 μL of PGH2 dissolved in an appropriate solvent is added to each well and after one minute at room temperature, the acidified stop solution containing FeCl2 is added. 4 μL of the total volume is transferred to a separate plate and diluted 750-fold in two separate steps before quantification of PGE2.
In order to quantitate the amount of PGE2 that has been formed, a homogenous time resolved fluorescent (HTRF) detection of PGE2 can be performed by the use of a commercially available kit from CisBio essentially according to the manufacturer's protocol. […]
Consider `O=C(NCc1ccc(Cl)c(Nc2nc3cc(Cl)c(N4CCCC(C(F)(F)F)C4)cc3[nH]2)c1)C1(C(F)(F)F)CC1` (centres unmarked) [Example 72], for which the 50% inhibitory concentration (IC50) turned out to be 11 nM.
In the case of `CC(=O)N1CCN(c2cc3c(cc2Cl)nc(Nc2cc(CNC(=O)C4(C(F)(F)F)CC4)ccc2Cl)n3C)CC1` [Example 73], the IC50 came to 61 nM.
For `CC(=O)N1CCN(c2cc3[nH]c(Nc4cc(CNC(=O)C5(C(F)(F)F)CC5)ccc4Cl)nc3cc2Cl)CC1` [Example 74], the IC50 turned out to be 144 nM.
Turning to `O=C(NCc1ccc(Cl)c(Nc2nc3cc(Cl)c(N4CCC(C(F)(F)F)CC4)cc3[nH]2)c1)C1(C(F)(F)F)CC1` [Example 75], the IC50 worked out at 8.7 nM.
Regarding `Cn1c(Nc2cc(CNC(=O)C3(C(F)(F)F)CC3)ccc2Cl)nc2cc(Cl)c(N3CCC(c4ccccc4)CC3)cc21` [Example 76, N-{4-Chloro-3-[5-chloro-1-methyl-6-(4-phenyl-piperidin-1-yl)-1H-benzimidazol-2-ylamino]-benzyl}-1-trifluoromethyl-cyclopropanamide], the IC50 amounted to 3.1 nM.
Next, `COC1CCN(c2cc3c(cc2Cl)nc(Nc2cc(CNC(=O)C4(C(F)(F)F)CC4)ccc2Cl)n3C)CC1` [Example 77]: 10 nM; `Cn1c(Nc2cc(CNC(=O)C3(C(F)(F)F)CC3)ccc2Cl)nc2cc(Cl)c(N3CCC(C)(C)CC3)cc21` [Example 78]: 1.7 nM; `Cn1c(Nc2cc(CNC(=O)C3(C(F)(F)F)CC3)ccc2Cl)nc2cc(Cl)c(N3CCC(F)(F)CC3)cc21` [Example 79]: 2.4 nM.
Consider `CN(C)CCn1c(Nc2cc(CNC(=O)C3(C(F)(F)F)CC3)ccc2Cl)nc2cc(Cl)c(N3CCC(C(F)(F)F)CC3)cc21` [Example 80], for which the IC50 was found to be 54 nM.
`COCCn1c(Nc2cc(CNC(=O)C3(C(F)(F)F)CC3)ccc2Cl)nc2cc(Cl)c(N3CCC(C(F)(F)F)CC3)cc21` [Example 81]: the IC50 was found to be 6.7 nM.
In the case of `Cn1c(Nc2cc(CNC(=O)C3(C(F)(F)F)CC3)ccc2Cl)nc2cc(C#N)c(N3CCC(C(F)(F)F)CC3)cc21` [Example 82, N-{4-Chloro-3-[5-cyano-1-methyl-6-(4-trifluoromethyl-piperidin-1-yl)-1H-benzimidazol-2-ylamino]-benzyl}-1-trifluoromethyl-cyclopropanamide], the IC50 is 1.7 nM.
Next, `Cn1c(Nc2cc(CNC(=O)C3(C(F)(F)F)CC3)ccc2Cl)nc2cc(Cl)c(N3CCN(c4ccc(C(F)(F)F)cc4)CC3)cc21` [Example 83, N-{4-Chloro-3-[5-chloro-1-methyl-6-(4-(4-trifluoromethylphenyl)-piperazin-1-yl)-1H-benzimidazol-2-ylamino]-benzyl}-1-trifluoromethyl-cyclopropanamide]: 1.3 nM.
For `Cn1c(Nc2cc(CNC(=O)C3(C(F)(F)F)CC3)ccc2Cl)nc2cc(F)c(N3CCC(C(F)(F)F)CC3)c(F)c21` [Example 84, N-{4-Chloro-3-[5,7-difluoro-1-methyl-6-(4-trifluoromethyl-piperidin-1-yl)-1H-benzimidazol-2-ylamino]-benzyl}-1-trifluoromethyl-cyclopropanamide] the value was 7.3 nM; for `Cn1c(Nc2cc(CNC(=O)C3(C(F)(F)F)CC3)ccc2Cl)nc2cc(F)c(N3CCC(C)(C)CC3)c(F)c21` [Example 85], 20 nM.
Next, `Cn1c(Nc2cc(CNC(=O)C3(C(F)(F)F)CC3)ccc2Cl)nc2cc(F)c(N3CCC(C(F)(F)F)CC3)cc21` [Example 86, N-{4-Chloro-3-[5-fluoro-1-methyl-6-(4-trifluoromethyl-piperidin-1-yl)-1H-benzimidazol-2-ylamino]-benzyl}-1-trifluoromethyl-cyclopropanamide]: 7.1 nM; `Cn1c(Nc2cc(CNC(=O)C3(C(F)(F)F)CC3)ccc2Cl)nc2cc(F)c(N3CCC(C)(C)CC3)cc21` [Example 87]: 14 nM; `O=C(NCc1ccc(Cl)c(Nc2nc3cc(Cl)c(N4CCC(C(F)(F)F)CC4)cc3n2CC2CC2)c1)C1(C(F)(F)F)CC1` [Example 88]: 5.3 nM.
Consider `O=C(NCc1ccc(Cl)c(Nc2nc3cc(Cl)c(N4CCC(C(F)(F)F)CC4)cc3n2CC(F)(F)F)c1)C1(C(F)(F)F)CC1` [Example 89], for which the half-inhibitory concentration (IC50) came to 6.1 nM.
On to `Cn1c(Nc2cc(CNC(=O)C3(C(F)(F)F)CC3)ccc2Cl)nc2cc(Cl)c(N3CCN(c4ccccc4)CC3)cc21` [Example 90], for which the IC50 was 2.2 nM.
With `Cn1c(Nc2cc(CNC(=O)C3(C(F)(F)F)CC3)ccc2Cl)nc2cc(Cl)c(N3CCC(c4ccc(F)cc4)CC3)cc21` [Example 91], the IC50 came to 3.6 nM.
Next, `N#Cc1c(N2CCCC(C(F)(F)F)C2)ccc2nc(Nc3cc(CNC(=O)C4(C(F)(F)F)CC4)ccc3Cl)[nH]c12` (centres unmarked) [Example 93, N-{4-Chloro-3-[4-cyano-5-(3-trifluoromethyl-piperidin-1-yl)-1H-benzimidazol-2-ylamino]-benzyl}-1-trifluoromethyl-cyclopropanamide]: 17 nM.
Next, `Cn1c(Nc2cc(CNC(=O)C(C)(F)F)ccc2Cl)nc2cc(Cl)c(N3CCC(C(F)(F)F)CC3)cc21` [Example 94, N-{4-Chloro-3-[5-chloro-1-methyl-6-(4-trifluoromethyl-piperidin-1-yl)-1H-benzimidazol-2-ylamino]-benzyl}-2,2-difluoro-propionamide]: 3.5 nM; `Cn1c(Nc2cc(CNC(=O)C(C)(F)F)ccc2Cl)nc2cc(Cl)c(N3CCC(c4ccccc4)CC3)cc21` [Example 95]: 2.1 nM.
Turning to `Cn1c(Nc2cc(CNC(=O)C(C)(F)F)ccc2Cl)nc2cc(Cl)c(N3CCN(c4ccc(C(F)(F)F)cc4)CC3)cc21` [Example 96], the IC50 was determined as 4.1 nM.
Next, `Cn1c(Nc2cc(CNS(=O)(=O)C(C)(C)C)ccc2Cl)nc2cc(Cl)c(N3CCC(C(F)(F)F)CC3)cc21` [Example 99, N-(4-Chloro-3-(5-chloro-1-methyl-6-(4-trifluoromethyl-piperidin-1-yl)-1H-benzo[d]imidazol-2-ylamino)benzyl)-2-methylpropane-2-sulfonamide]: 4 nM; `Cn1c(Nc2cc(CNS(=O)(=O)C(C)(C)C)ccc2Cl)nc2cc(Cl)c(N3CCN(c4ccc(C(F)(F)F)cc4)CC3)cc21` [Example 100]: 7.7 nM.
As to `Cn1c(Nc2cc(CNC(=O)C3(C(F)(F)F)CC3)ccc2C(F)(F)F)nc2cc(Cl)c(N3CCC(C(F)(F)F)CC3)cc21` [Example 101, N-{4-Trifluoromethyl-3-[5-chloro-1-methyl-6-(4-trifluoromethyl-piperidin-1-yl)-1H-benzimidazol-2-ylamino]-benzyl}-1-trifluoromethyl-cyclopropanamide], the IC50 was determined as 2.8 nM.
For `Cn1c(Nc2cc(CNC(=O)C3CC3)ccc2C(F)(F)F)nc2cc(Cl)c(N3CCC(C(F)(F)F)CC3)cc21` [Example 102] the value was 2.4 nM; for `Cn1c(Nc2cc(CNC(=O)c3c(F)cccc3Cl)ccc2C(F)(F)F)nc2cc(Cl)c(N3CCC(C(F)(F)F)CC3)cc21` [Example 103], 2 nM.
